For one experiment, the system named is Male Sprague-Dawley rats. Nature of the experiment: Effect on energy expenditure of rats. Format: in vivo. Conditions: percentage of rate of rats dosed with water; for response vs control in vivo at 3.6 mg/kg / response vs control in vivo at 8.9 mg/kg / response vs control in vivo at 4.1 mg/kg / response vs control in vivo at 8.2 mg/kg / response vs control in vivo at 21.6 mg/kg / response vs control in vivo at 3.7 mg/kg / response vs control in vivo at 32.6 mg/kg / response vs control in vivo at 4.3 mg/kg / response vs control in vivo at 4 mg/kg: Rattus norvegicus, po; for response vs control in vivo at 8.9 mg/kg: 8.9 mg/kg p.o.; for response vs control in vivo at 4.1 mg/kg: 4.1 mg/kg p.o.; for response vs control in vivo at 8.2 mg/kg: 8.2 mg/kg p.o.; for response vs control in vivo at 21.6 mg/kg: 21.6 mg/kg p.o.; for response vs control in vivo at 3.7 mg/kg: 3.7 mg/kg p.o.; for response vs control in vivo at 32.6 mg/kg: 32.6 mg/kg p.o.; for response vs control in vivo at 4.3 mg/kg: 4.3 mg/kg p.o.; for response vs control in vivo at 4 mg/kg: 4.0 mg/kg p.o. As for the experimental part:
Water was provided ad lib at all times. The compounds were administered orally in water to 3 or 4 rats. A further 4 rats were dosed orally with water. The rats were placed in boxes through which air was drawn and the oxygen content of the air leaving the boxes was measured. The energy expenditure of the rats was calculated for 3 hours and for 21 hours after dosing from the volume of air leaving the boxes and its oxygen content, following the principles described by J.B. de V. Weir, J. Physiol. (London) 109, 1-9 (1949). The results are expressed as a percentage of the rate of energy expenditure of the rats dosed with water.

For experiment [1], the system named is spontaneously beating right atrium. Nature of the experiment: Isolated rat atria: rate of the spontaneously beating right atrium. Conditions: for EC50: molar concentration producing 50% of the compound's own maximum response; for Emax: read-out: Rate Intrinsic Activity. How it is done:
(§1) Sprague-Dawley male rats (300-400g) are killed and the right and left atria dissected out independently and mounted on a combined tissue holder/electrode. […] The rate of the spontaneously beating right atrium (via an isometric transducer and a ratemeter) and the tension of the electrically paced left atrium (via an isometric transducer) are recorded on a M19 chart recorder.
(§2) After an initial stabilization period, the tissues are exposed to a maximal concentration of isoprenaline (10-^7M). The tissues are then washed several times until rate and tension return to baseline level. A dose-response curve to the test compound is then carried out.
(§3) Responses to each concentration of test compound are expressed as a percentage of the maximal responses to isoprenaline. Results are given in the form of (a) intrinsic activity (maximal effect of test compound with respect to isoprenaline maximum, i.e. isoprenaline intrinsic activity = 1) and (b) EC50 (the molar concentration at which the test compound produces 50% of its own maximum response).

Experiment [2] deals with electrically paced left atrium. Nature of the experiment: Isolated rat atria: tension of the electrically paced left atrium. Conditions: for EC50: molar concentration producing 50% of the compound's own maximum response; for Emax: read-out: Tension Intrinsic Activity. How it is done: as §1, §2, §3
The mark [3] stands for this setting: Krebs solution at 32°C, maximal effect relative to isoprenaline maximum (isoprenaline = 1).
[4] abbreviates: Rattus norvegicus, Krebs solution at 32°C, maximal effect relative to isoprenaline maximum (isoprenaline = 1).
Where [5] appears, read: Rattus norvegicus, Krebs solution at 32°C.
The mark [6] stands for this setting: 3 h, 0-3h after dosing, read-out: Mean Energy Expenditure 0-3h.
[7] abbreviates: 21 h, 0-21h after dosing, read-out: Mean Energy Expenditure 0-21h.
Setting [8] is: Rattus norvegicus, organ bath at 29°C, maximal effect relative to isoprenaline maximum (isoprenaline = 1).
Where [9] appears, read: Rattus norvegicus, organ bath at 29°C.

Molecules are shown by their SMILES. Like-named read-outs stand apart in the source and are kept apart here.

Usually EC50 stands for the concentration at which the effect is half-maximal. The low end stands for an effect from little substance, the high end for a need for much substance.

On to `CC(Cc1ccc2c(c1)NC(=O)CO2)NCC(O)c1cccc(Cl)c1` (centres unmarked) [8 (14:86), 6-[2-[2-(3-Chlorophenyl)-2-hydroxyethylamino]-2-methylethyl]-2H-1,4-benzoxazin-3-(4H)-one], for which the response vs control in vivo at 3.6 mg/kg with Male Sprague-Dawley rats (3 h, 3.6 mg/kg p.o., 0-3h after dosing, read-out: Mean Energy Expenditure 0-3h) is 125%; with Male Sprague-Dawley rats (21 h, 3.6 mg/kg p.o., 0-21h after dosing, read-out: Mean Energy Expenditure 0-21h) it was 105%. Moreover, the “Rate Intrinsic Activity” value in experiment [1] (setting [3]) was determined as 0.16. Besides, the EC50 amounted to 750 nM in experiment [1] (Krebs solution at 32°C) and 3800 nM in experiment [2] (Krebs solution at 32°C). In addition, the “Tension Intrinsic Activity” value in experiment [2] (setting [3]) was found to be 0.20.
With `CC(Cc1ccc2c(c1)NC(=O)CO2)NCC(O)c1cccc(Cl)c1` (centres unmarked) [8 (82:18), 6-[2-[2-(3-chlorophenyl)-2-hydroxyethylamino]-2-methylethyl]-2H-1,4-benzoxazin-3-(4H)-one], the “Mean Energy Expenditure 0-3h” value in the experiment on Male Sprague-Dawley rats (3.6 mg/kg p.o., 0-3h after dosing) amounted to 122%. Moreover, the “Mean Energy Expenditure 0-21h” value in the experiment with Male Sprague-Dawley rats (3.6 mg/kg p.o., 0-21h after dosing) was 106%. Moreover, the EC50 in experiment [1] (Krebs solution at 32°C) was determined as 240 nM; in experiment [2] (setting [5]), 3200 nM. The Emax in experiment [1] (setting [4]) was 29%; in experiment [2] (setting [4]), 12%.
Take `CC(COc1ccc2c(c1)NC(=O)CO2)NCC(O)COc1ccccc1O` (centres unmarked) [Example 5, 6-[2-[3-(2-hydroxyphenoxy)-2-hydroxypropylamino]-2-methylethoxy]-2H-1,4-benzoxazin-3-(4H)-one hemifumarate]: the response vs control in vivo at 8.9 mg/kg with Male Sprague-Dawley rats (setting [6]) is 111%; in the experiment on Male Sprague-Dawley rats (setting [7]) it was 100%. In experiment [1] (setting [4]), the Emax was determined as 18%. Moreover, a half-maximal effect in experiment [1] (setting [5]) (EC50) was put at 35 nM.
As for `CCc1cccc2cc(C(O)CNC(C)COc3ccc4c(c3)NC(=O)CO4)oc12` (centres unmarked) [Example 20, 6-[2-[2-(7-Ethylbenzofuran-2-yl)-2-hydroxyethylamino]-2-methylethoxy]-2H-1,4-benzoxazin-3-(4H)-one], the results for the response vs control in vivo at 4.1 mg/kg with Male Sprague-Dawley rats (setting [6]) and in the experiment with Male Sprague-Dawley rats (setting [7]) were 110% and 107%, respectively. Moreover, the Emax in experiment [1] (setting [8]) worked out at 95%; in experiment [2] (setting [8]), 113%. Further, the values for the 50% effective concentration (EC50) in experiment [1] (setting [9]) and in experiment [2] (setting [9]) were 63 nM and 130 nM, respectively.
Take `CC(COc1ccc2c(c1)NC(=O)CO2)NCC(O)COc1cccc2[nH]ccc12` (centres unmarked) [Example 19, 6-[2-[2-hydroxy-3-(indol-4-yloxy)propylamino]-2-methyl-ethoxy]-2H-1,4-benzoxazin-3-(4H)-one]: the results for the response vs control in vivo at 8.2 mg/kg with Male Sprague-Dawley rats (setting [6]) and in the experiment on Male Sprague-Dawley rats (setting [7]) were 116% and 114%, respectively. Moreover, the Emax in experiment [1] (setting [8]) came out at 54%. Besides, the EC50 in experiment [1] (setting [9]) worked out at 130 nM.
As to `CC(COc1ccc2c(c1)NC(=O)CO2)NCC(O)COc1cc(O)cc(O)c1` (centres unmarked) [Example 21, 6-[2-[3-(3,5-Dihydroxyphenoxy)-2-hydroxypropylamino]-2-methylethoxy]-2H-1,4-benzoxazin-3-(4H)-one hemifumarate], the response vs control in vivo at 21.6 mg/kg in the experiment on Male Sprague-Dawley rats (setting [6]) came out at 110%; in the experiment on Male Sprague-Dawley rats (setting [7]), 105%. Further, the Emax in experiment [1] (setting [8]) is 85%. In addition, in experiment [1] (setting [9]), the EC50 was 16 nM.
For the compound `CC(Cc1ccc2c(c1)NC(=O)CO2)NCC(O)COc1ccccc1O` (centres unmarked) [Example 9, 6-[2-[3-(2-hydroxyphenoxy)-2-hydroxypropylamino]-2-methylethyl]-2H-1,4-benzoxazin-3-(4H)-one], the Emax came out at 15% in experiment [1] (setting [4]) and 12% in experiment [2] (setting [4]). The EC50 in experiment [1] (setting [5]) was found to be 30 nM; in experiment [2] (setting [5]) it was 28 nM.
Regarding `CC(Cc1ccc2c(c1)NC(=O)CO2)NCC(O)COc1ccc(O)cc1` (centres unmarked) [Example 14, 6-[2-[3-(4-Hydroxyphenoxy)-2-hydroxypropylamino]-2-methylethyl]-2H-1,4-benzoxazin-3-(4H)-one], the figures for the response vs control in vivo at 3.7 mg/kg with Male Sprague-Dawley rats (setting [6]) and in the experiment on Male Sprague-Dawley rats (setting [7]) were 114% and 103%, respectively. Besides, the Emax in experiment [1] (setting [4]) stood at 87%; in experiment [2] (setting [4]) it was 54%. Also, the EC50 in experiment [1] (setting [5]) worked out at 400 nM; in experiment [2] (setting [5]), 1400 nM.
With `CC(COc1ccc2c(c1)N(C)C(=O)CO2)NCC(O)c1cccc(Cl)c1` (centres unmarked) [Example 12, 6-[2-[2-(3-Chlorophenyl)-2-hydroxyethylamino]-2-methylethoxy]-4-methyl-2H-1,4-benzoxazin-3-(4H)-one hemifumarate], the response vs control in vivo at 8.9 mg/kg with Male Sprague-Dawley rats (setting [6]) came to 109%; in the experiment with Male Sprague-Dawley rats (setting [7]), 97%. For the same compound, the Emax in experiment [1] (setting [8]) was 98%; in experiment [2] (setting [8]) it was 90%. Also, the EC50 worked out at 29 nM in experiment [1] (setting [9]) and 790 nM in experiment [2] (setting [9]).
On to `CC(Cc1ccc2c(c1)NC(=O)CO2)NCC(O)c1ccccc1` (centres unmarked) [Example 10, 6-[2-[2-Phenyl-2-hydroxyethylamino]-2-methylethyl]-2H-1,4-benzoxazin-3-(4H)-one], for which the response vs control in vivo at 32.6 mg/kg was 122% in the experiment on Male Sprague-Dawley rats (setting [6]) and 101% with Male Sprague-Dawley rats (setting [7]).
Take `C=CCOc1ccccc1OCC(O)CNC(C)COc1ccc2c(c1)NC(=O)CO2` (centres unmarked) [Example 16, 6-[2-[3-(2-Allyloxyphenoxy)-2-hydroxypropylamino]-2-methyl-ethoxy]-2H-1,4-benzoxazin-3-(4H)-one]: the results for the response vs control in vivo at 4.3 mg/kg with Male Sprague-Dawley rats (setting [6]) and with Male Sprague-Dawley rats (setting [7]) were 115% and 101%, respectively.
With `CC(COc1ccc2c(c1)NC(=O)CO2)NCC(O)COc1ccccc1` (centres unmarked) [Example 18, 6-[2-(2-Hydroxy-3-phenoxypropylamino)-2-methylethoxy]-2H-1,4-benzoxazin-3-(4H)-one], the response vs control in vivo at 3.7 mg/kg amounted to 155% with Male Sprague-Dawley rats (setting [6]) and 109% in the experiment with Male Sprague-Dawley rats (setting [7]). Also, the Emax in experiment [1] (setting [4]) came out at 52%. In experiment [1] (setting [5]), this compound had an EC50 of 11 nM.
Regarding `COc1ccccc1OCC(O)CNC(C)COc1ccc2c(c1)NC(=O)CO2` (centres unmarked) [Example 17, 6-[2-[3-(2-Methoxyphenoxy)-2-hydroxypropylamino]-2-methyl-ethoxy]-2H-1,4-benzoxazin-3-(4H)-one], the response vs control in vivo at 4 mg/kg in the experiment with Male Sprague-Dawley rats (setting [6]) came out at 112%; with Male Sprague-Dawley rats (setting [7]), 103%. Further, the Emax in experiment [1] (setting [8]) was determined as 91%. In experiment [1] (setting [9]), this compound yielded an EC50 of 8.6 nM.
For `CC(Cc1ccc2c(c1)N(C)C(=O)CO2)NCC(O)c1cccc(Cl)c1` (centres unmarked) [Example 13, 6-[2-[2-(3-Chlorophenyl)-2-hydroxyethylamino]-2-methylethyl]-4-methyl-2H-1,4-benzoxazin-3-(4H)-one hemifumarate], the Emax in experiment [1] (setting [8]) was 64%; in experiment [2] (setting [8]), 54%. The results for the EC50 in experiment [1] (setting [9]) and in experiment [2] (setting [9]) were 250 nM and 15000 nM, respectively.
